One assay concerns the target T1, human FXa (Homo sapiens, UniProt P00742).
T1 construct: purchased Anaspec, Fremont, CA, USA
The experiment in a line: Inhibition of FXa in vitro (SensoLyte Rh110 Factor Xa Assay Kit, fluorometric). In kind it is biochemical. Particulars: for Emax at 0.01 µM: at 10 nM, read-out: maximal effect of FXa inhibition. The protocol: The selected compounds were measured in vitro for their factor Xa inhibition using chromogenic substrates. In a first trial the 30 compounds obtained from the developmental therapeutic program at NCI were dissolved in dimethyl sulfoxide (DMSO) at a concentration of 100 mM and then diluted in DMSO to 100 μM. The enzymatic assay was prepared according to manufacturer’s instructions (SensoLyte® Rh110 Factor Xa Assay Kit *Fluorometric*, Anaspec, Fremont, CA, USA). Inhibition control 1 mM was diluted 1:10 with the prepared buffer 1X obtaining the 0.1 mM inhibition control. The reagents containing compound dilutions, buffer and enzyme were mixed, centrifuged, and incubated for 30 min at 37 °C in 96-well microtiter plates. The enzyme reaction was initiated by adding appropriate substrate (FXa, S-2222). The 96-well plate for fluorescence was prepared with 40 μL of enzyme and 1 μL of each compound. To initiate the enzymatic reaction 50 μL of the factor Xa substrate was added to each well and the plate was read with a fluorescence microplate reader FLx800 (Biotek Inc., Winooski, VT, USA) programmed to read continuously for 30 min at 37 °C, at a wavelength of Ex/Em 490 nm/520 nm. […] The data obtained was analyzed with Prism v.7 (GraphPad Inc., La Jolla, CA, USA). In the second trial, the ten filtered and selected compounds) were prepared to span four different concentrations: 0.1–10 nM. The IC50 was calculated from the mean of triplicates from a dilution series of the compound with Prism v.7 (GraphPad Inc., La Jolla, CA, USA).

The subject of assay [1] is human plasma. Put plainly: In vitro coagulation assay, activated partial thromboplastin time (aPTT). The settings on record: 0.1 to 10 nM. Here is the method:
(§1) PT and aPTT assays were performed on an ACLTop (Instrumentation Laboratory) coagulation instrument. Recombiplastin 2G and aPTT-SP liquid were used according to standard procedures. Increasing concentrations of inhibitor ranging from 0.1 to 10 nM or solvent were added to human plasma and incubated for 10 min at 37 °C. Clotting times were measured and compared with those from the appropriate control plasma.

Assay [2] has as its system human plasma. Put plainly: In vitro coagulation assay, prothrombin time (PT). The settings on record: up to 10 nM. The protocol:
as §1

The next assay concerns tumor cell line. Particulars: assayed 53 times, ChEMBL database ref 46, 47; cited from earlier work.
Where [3] appears, read: read-out: FXa Activity Inhibition >50% at 1 μM.
[4] abbreviates: read-out: FXa Activity Inhibition >50% at 10 μM.

The values that follow come from paper PMC6151700, “Novel FXa Inhibitor Identification through Integration of Ligand- and Structure-Based Approaches” (Molecules : A Journal of Synthetic Chemistry and Natural …, 2017).

pIC50: −log10 of the molar value. Where two headings read alike, the source gives them in different places. A value given as a limit tells only on which side of the number the result lay.

T1 sequence (P00742 235-488 limits assumed): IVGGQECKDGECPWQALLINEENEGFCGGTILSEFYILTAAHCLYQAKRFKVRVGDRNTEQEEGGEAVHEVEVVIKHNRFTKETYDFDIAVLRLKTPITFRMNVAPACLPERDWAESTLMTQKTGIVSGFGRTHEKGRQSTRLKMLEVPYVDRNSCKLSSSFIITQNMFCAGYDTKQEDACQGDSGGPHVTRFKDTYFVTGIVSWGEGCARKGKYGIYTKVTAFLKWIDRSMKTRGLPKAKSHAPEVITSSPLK
T1 sequence (P00742 41-179 partner limits assumed): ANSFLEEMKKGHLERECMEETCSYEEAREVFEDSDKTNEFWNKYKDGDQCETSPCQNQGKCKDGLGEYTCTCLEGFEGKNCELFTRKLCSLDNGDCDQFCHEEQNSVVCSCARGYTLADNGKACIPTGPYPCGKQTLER

With `c1ccc(Cc2[nH]nc(-c3n[nH]c(Cc4ccccc4)c3-c3ccccc3)c2-c2ccccc2)cc1` [Compound 12], at human FXa, the “FXa Activity Inhibition >50% at 1 μM” value is “(−) (FXa Activity Inhibition >50% at 1 μM)” and the “FXa Activity Inhibition >50% at 10 μM” value was “(+) (FXa Activity Inhibition >50% at 10 μM)”.
The matching figures for `Cc1cc(Cl)ccc1NC(=O)CC1SC(=NC(=O)c2ccccc2Cl)NC1=O` (stereo not shown) [Compound 22]: “(−) (FXa Activity Inhibition >50% at 1 μM)” and “(+) (FXa Activity Inhibition >50% at 10 μM)”.
The matching figures for `O=C(C[n+]1ccn(CC(OCc2ccc(Cl)cc2Cl)c2ccc(Cl)cc2Cl)c1)c1ccc(F)cc1.[Cl-]` (stereo not shown) [Compound 10]: “(−) (FXa Activity Inhibition >50% at 1 μM)” and “(+) (FXa Activity Inhibition >50% at 10 μM)”.
On to `O=C(NC[C@H]1CN(c2ccc(N3CCOCC3=O)cc2)C(=O)O1)c1ccc(Cl)s1` [Rivaroxaban, reference compound], for which, in the assay on human plasma [1], the aPTT result was “simultaneously prolonged aPTT and PT in a dose-dependent manner”. Also, at human FXa, the Emax at 0.01 µM turned out to be 81%. Also, at human FXa (setting [3]), the inhibition at 1 µM is more than 50%. In addition, the inhibition at 10 µM at human FXa (setting [4]) was more than 50%. The PT result in the assay with human plasma [2] is “simultaneously prolonged aPTT and PT in a dose-dependent manner”.
For the compound `CS(=O)(=O)N1C[C@H](C(=O)Nc2ccc(Cl)cc2)[C@@H](C(=O)Nc2ccc(-n3ccccc3=O)cc2F)C1` [Compound 8], on human FXa (1 µM, Table S1, read-out: FXa Activity Inhibition >50% at 1µM), the inhibition at 1 µM is less than 50%. At human FXa (10 µM, Table S1, read-out: FXa Activity Inhibition >50% at 10µM), the inhibition at 10 µM was less than 50%.
`NC(=O)N/N=C(/Cc1nc2ccc(C(=O)c3ccccc3)cc2[nH]c1=O)C(=O)Nc1ccc(Br)cc1` [Compound 24]: on human FXa, the “FXa Activity Inhibition >50% at 1 μM” value was “(−) (FXa Activity Inhibition >50% at 1 μM)” and the “FXa Activity Inhibition >50% at 10 μM” value is recorded as “(+) (FXa Activity Inhibition >50% at 10 μM)”.
For `CCOc1ccc(NC(=O)CC2SC(=Nc3ccc(C)cc3)NC2=O)cc1` (stereo not shown) [Compound 9] the same measures were “(−) (FXa Activity Inhibition >50% at 1 μM)” and “(+) (FXa Activity Inhibition >50% at 10 μM)”.
For `O=C(CC(=O)C1=CNc2ccccc2S1)C(=O)Nc1ccc(Cl)cc1` [Compound 23] the same measures were “(−) (FXa Activity Inhibition >50% at 1 μM)” and “(+) (FXa Activity Inhibition >50% at 10 μM)”.
On to `CC1=C(C(=O)CC(=O)C(=O)Nc2ccccc2)Sc2ccccc2N1` [Compound 5, 4-(3-methyl-4H-1,4-benzothiazin-2-yl)-2,4-dioxo-N-phenylbutanamide], for which, in the assay with tumor cell line, the “tumor cell line growth inhibition” value was “inactive in all of them”. Further, in the assay with human plasma [1], the aPTT entry is given as “prolonged only aPTT”. Moreover, the Emax at 0.01 µM on human FXa turned out to be 58%. Besides, the inhibition at 1 µM was more than 50% at human FXa (at 1 μM, read-out: FXa inhibition) and more than 50% at human FXa (setting [3]). The compound further had a pIC50 at human FXa (dose response curves, human FXa) of 8.69. Moreover, the inhibition at 10 µM at human FXa (setting [4]) is more than 50%. The PT entry in the assay on human plasma [2] is listed as “without effect on PT”.
With `O=C(NCc1ccc2ccc3cccnc3c2n1)c1ccc[n+](Cc2ccccc2)c1` [Compound 2], at human FXa, the “FXa Activity Inhibition >50% at 1 μM” value is on record as “(−) (FXa Activity Inhibition >50% at 1 μM)” and the “FXa Activity Inhibition >50% at 10 μM” value is “(+) (FXa Activity Inhibition >50% at 10 μM)”.
In the case of `Cc1ccc(NC(=O)CCc2nnc3s/c(=C\c4cccc([N+](=O)[O-])c4)c(=O)n23)cc1` [Compound 3], at human FXa, the “FXa Activity Inhibition >50% at 1 μM” value is reported as “(−) (FXa Activity Inhibition >50% at 1 μM)” and the “FXa Activity Inhibition >50% at 10 μM” value is listed as “(+) (FXa Activity Inhibition >50% at 10 μM)”.

The inhibition is the relative decrease from the control value, in per cent. By pIC50 is commonly meant the negative decadic logarithm of the IC50, by convention in mol/L.
